Assay results reported in PubChem BioAssay AID602237 (National Center for Advancing Translational Sciences (NCATS), 2012).
≈ marks a conversion by molar mass, not a printed value.

Test system: aqueous kinetic solubility, PBS pH 7.4, LC-UV/MS
Assay: qHTS for Activators of Human alpha-Glucosidase as a Potential Chaperone Treatment of Pompe Disease: Aqueous Solubility
Conditions: hits give high values
From the text: Alpha-glucosidase is responsible for hydrolysis of terminal, non-reducing 1,4-linked alpha-D-glucose residues with release of alpha-D-glucose. It is a lysosomal hydrolase that is required for the degradation of a small percentage (1-3%) of cellular glycogen in human. Deficiency of this enzyme results in glycogen-storage disease type II (GSDII), also referred to as Pompe disease, an autosomal recessive disorder. Structurally normal glycogen is accumulated in lysosomes and cytoplasm in affected patients, primarily in muscle tissues. Excessive glycogen storage within lysosomes may interrupt normal functioning of other organelles and leads to cellular injury. In turn, this leads to enlargement and dysfunction of the entire organ involved (eg, cardiomyopathy and muscle weakness). It has reported that the improper folding and trafficking of alpha-glucosidase resulting from the genetic mutations may account for a significant number of Pompe patients. […]
1. […] Concentration of the supernatant was determined by LC-UV or LC-MS/MS […]

CCCN1CNc2c(c(=O)[nH]c(=S)n2Cc2ccc(OC)c(OC)c2)C1
solubility: 289 µM (≈ 109 µg/mL)
